Reference: ChEMBL document CHEMBL3885861, “Open TG-GATES”

Species on record: Rattus norvegicus
Test: Open TG-GATES - Regimen: Single
Format: toxicity, organism-based, Sprague-Dawley
Design: regimen Single, gender Male, age 6 weeks
Details: in vivo, iv, 3 mg/kg, route intravenous injection, dose level High; for KIDNEY_L / KIDNEY_R / KIDNEY_TOTAL: tissue Kidney; for LIVER: tissue Liver

CISPLATIN
APTT (6 h, tissue Blood): 22 s | Bas (6 h, tissue Blood): 0% | Eos (6 h, tissue Blood): 0.8% | Fbg (6 h, tissue Blood): 280.6 mg/dL | Hb (6 h, tissue Blood): 12.9 g/dL | Ht (6 h, tissue Blood): 39.8% | MCV (6 h, tissue Blood): 64 fL | Mono (6 h, tissue Blood): 2.8% | PT (6 h, tissue Blood): 15.3 s | Plat (6 h, tissue Blood): 123.5 x10_4/uL | RBC (6 h, tissue Blood): 623.2 x10_4/ul | Ret (6 h, tissue Blood): 6.2% | WBC (6 h, tissue Blood): 89 x10_2/uL | KIDNEY_L (6 h): 0.9 g | KIDNEY_R (6 h): 0.9 g | KIDNEY_TOTAL (6 h): 1.9 g | LIVER (6 h): 9.1 g | ALP (6 h, tissue Plasma): 1307.8 IU/L | ALT (6 h, tissue Plasma): 42.6 IU/L | AST (6 h, tissue Plasma): 81 IU/L | CRE (6 h, tissue Plasma): 0.2 mg/dL | DBIL (6 h, tissue Plasma): 0 mg/dL | GLC (6 h, tissue Plasma): 177.2 mg/dL | IP (6 h, tissue Plasma): 9.5 mg/dL | K (6 h, tissue Plasma): 4.7 meq/L | Na (6 h, tissue Plasma): 139 meq/L | PL (6 h, tissue Plasma): 127.8 mg/dL | RALB (6 h, tissue Plasma): 2.9 g/dL | TBIL (6 h, tissue Plasma): 0 mg/dL | TC (6 h, tissue Plasma): 75 mg/dL | TG (6 h, tissue Plasma): 79.2 mg/dL | TP (6 h, tissue Plasma): 5.3 g/dL | gamma-GTP (6 h, tissue Plasma): 1.8 IU/L | TERMINAL_BW (9 h): 213.7 g | APTT (9 h, tissue Blood): 22.3 s | Bas (9 h, tissue Blood): 0% | Eos (9 h, tissue Blood): 0.6% | Fbg (9 h, tissue Blood): 287.4 mg/dL | Ht (9 h, tissue Blood): 38.5% | Lym (9 h, tissue Blood): 79.8% | MCHC (9 h, tissue Blood): 32.7% | Mono (9 h, tissue Blood): 1.8% | PT (9 h, tissue Blood): 15.4 s | Plat (9 h, tissue Blood): 137.7 x10_4/uL | RBC (9 h, tissue Blood): 615.8 x10_4/ul | Ret (9 h, tissue Blood): 5.4% | WBC (9 h, tissue Blood): 60.5 x10_2/uL | KIDNEY_L (9 h): 1 g | KIDNEY_R (9 h): 1 g | KIDNEY_TOTAL (9 h): 1.9 g | LIVER (9 h): 8.6 g | ALP (9 h, tissue Plasma): 1222.8 IU/L | ALT (9 h, tissue Plasma): 37.8 IU/L | AST (9 h, tissue Plasma): 73 IU/L | BUN (9 h, tissue Plasma): 12 mg/dL | CRE (9 h, tissue Plasma): 0.1 mg/dL | Ca (9 h, tissue Plasma): 11 mg/dL | DBIL (9 h, tissue Plasma): 0 mg/dL | GLC (9 h, tissue Plasma): 178.6 mg/dL | IP (9 h, tissue Plasma): 9.8 mg/dL | K (9 h, tissue Plasma): 4.4 meq/L | LDH (9 h, tissue Plasma): 133.4 IU/L | Na (9 h, tissue Plasma): 140.2 meq/L | PL (9 h, tissue Plasma): 124 mg/dL | RALB (9 h, tissue Plasma): 3 g/dL | TBIL (9 h, tissue Plasma): 0.024 mg/dL | TC (9 h, tissue Plasma): 70.2 mg/dL | TG (9 h, tissue Plasma): 57 mg/dL | TP (9 h, tissue Plasma): 5.4 g/dL | gamma-GTP (9 h, tissue Plasma): 1.8 IU/L | TERMINAL_BW (24 h): 220 g | APTT (24 h, tissue Blood): 22.6 s | Bas (24 h, tissue Blood): 0% | Eos (24 h, tissue Blood): 0.6% | Fbg (24 h, tissue Blood): 297.2 mg/dL | Ht (24 h, tissue Blood): 40.2% | Lym (24 h, tissue Blood): 87% | MCH (24 h, tissue Blood): 21 pg | MCHC (24 h, tissue Blood): 33% | MCV (24 h, tissue Blood): 63.8 fL | Mono (24 h, tissue Blood): 2.8% | Neu (24 h, tissue Blood): 9.4% | Plat (24 h, tissue Blood): 134.6 x10_4/uL | RBC (24 h, tissue Blood): 629.2 x10_4/ul | Ret (24 h, tissue Blood): 3.9% | WBC (24 h, tissue Blood): 73 x10_2/uL | KIDNEY_L (24 h): 1 g | KIDNEY_R (24 h): 1 g | KIDNEY_TOTAL (24 h): 2 g | LIVER (24 h): 9.6 g | ALP (24 h, tissue Plasma): 1429.2 IU/L | ALT (24 h, tissue Plasma): 39 IU/L | AST (24 h, tissue Plasma): 72.4 IU/L | BUN (24 h, tissue Plasma): 16.2 mg/dL | CRE (24 h, tissue Plasma): 0.2 mg/dL | DBIL (24 h, tissue Plasma): 0 mg/dL | GLC (24 h, tissue Plasma): 181 mg/dL | IP (24 h, tissue Plasma): 8.3 mg/dL | K (24 h, tissue Plasma): 4.3 meq/L | Na (24 h, tissue Plasma): 140 meq/L | PL (24 h, tissue Plasma): 147.2 mg/dL | RALB (24 h, tissue Plasma): 3.1 g/dL | TBIL (24 h, tissue Plasma): 0.024 mg/dL | TC (24 h, tissue Plasma): 89.2 mg/dL | TG (24 h, tissue Plasma): 51.8 mg/dL | TP (24 h, tissue Plasma): 5.5 g/dL | gamma-GTP (24 h, tissue Plasma): 1.8 IU/L
